± gives the standard deviation of the averaged measurements.
Key:
Test in all cases: level (log10 ratio to DMSO vehicle control); higher = higher biomarker level / cell amount than vehicle control
[1] = compound: C=CC(=O)OCC(F)(F)C(F)(F)C(F)(F)C(F)(F)COC(=O)C=C [1H,1H,6H,6H-Perfluorohexane-1,6-diol diacrylate]; conditions: 6700 nM; in DMSO
Experimental: (§1)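 BioMAP Diversity Plus panel of 12 human primary cell co-culture systems (3C, 4H, LPS, SAg, BT, BF4T, BE3C, CASM3C, HDF3CGF, KF3CT, MyoF, Mphg). Compounds were added 1 h before stimulation and left for 24 h (MyoF 48 h; BT 72 h for soluble read-outs or 6 d for IgG). Biomarkers were read by ELISA, cytotoxicity by SRB, PBMC viability and proliferation by Alamar Blue. Each well value was divided by the mean of 8 DMSO control wells on the same plate and log10 transformed; duplicate blinded samples were tested at 4 concentrations.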

[2] = compound: C=CC(=O)OCCC(F)(F)C(F)(F)C(F)(F)C(F)(F)C(F)(F)C(F)(F)C(F)(F)C(F)(F)F [8:2 Fluorotelomer acrylate]; conditions: in DMSO
Experimental: as §1

[3] = compound: Cc1ccc(S(=O)(=O)OCC(F)(F)C(F)(F)C(F)(F)C(F)(F)C(F)(F)C(F)F)cc1 [1H,1H,7H-Perfluoroheptyl 4-methylbenzenesulfonate]; conditions: in DMSO
Experimental: as §1

[4] = compound: O=C(O)C(F)(F)C(F)(F)C(F)(F)C(F)(F)C(F)(F)C(F)(F)C(F)(F)F [Ammonium perfluorooctanoate]; conditions: in DMSO
Experimental: as §1

[5] = compound: O=S(=O)(O)CCC(F)(F)C(F)(F)C(F)(F)C(F)(F)F [4:2 Fluorotelomer sulfonic acid]; conditions: in DMSO
Experimental: as §1

[6] = compound: OCC(F)(F)C(F)(F)C(F)(F)C(F)(F)C(F)(F)C(F)(F)F [6:1 Fluorotelomer alcohol]; conditions: in DMSO
Experimental: as §1

[7] = compound: OCCCCC(F)(F)C(F)(F)C(F)(F)C(F)(F)F [4:4 Fluorotelomer alcohol]; conditions: in DMSO
Experimental: as §1

Test System | level (log10) [1] | level (log10) ([2]; 6700 nM) | level (log10) ([2]; 20000 nM) | level (log10) ([2]; 60000 nM) | level (log10) ([3]; 6700 nM) | level (log10) ([3]; 20000 nM) | level (log10) ([3]; 60000 nM) | level (log10) ([4]; 6700 nM) | level (log10) ([4]; 20000 nM) | level (log10) ([4]; 60000 nM) | level (log10) ([5]; 6700 nM) | level (log10) ([5]; 20000 nM) | level (log10) ([5]; 60000 nM) | level (log10) ([6]; 6700 nM) | level (log10) ([6]; 20000 nM) | level (log10) ([6]; 60000 nM) | level (log10) ([7]; 6700 nM) | level (log10) ([7]; 20000 nM) | level (log10) ([7]; 60000 nM)
HDF3CGF:CD106/VCAM-1 | -0.676 ± 0.061 | 0.0005 ± 0.022 | 0.011 ± 0.0071 | 0.007 ± 0.0085 | -0.061 ± 0.013 | -0.046 ± 0.016 | -0.0335 ± 0.0035 | -0.0315 ± 0.011 | -0.0065 ± 0.023 | -0.037 ± 0.0071 | 0.0515 ± 0.081 | 0.0365 ± 0.094 | 0.021 ± 0.11 | -0.0135 ± 0.013 | 0.004 ± 0.044 | -0.681 ± 0.28 | -0.028 ± 0.083 | -0.0125 ± 0.04 | -0.0215 ± 0.0021
HDF3CGF:CXCL8/IL-8 | -0.021 ± 0.0057 | -0.01 ± 0.0085 | -0.0105 ± 0.0035 | -0.0095 ± 0.026 | -0.0045 ± 0.011 | 0.0065 ± 0.0035 | 0.0095 ± 0.0021 | -0.0025 ± 0.005 | 0.002 ± 0.0042 | 0.003 | -0.011 ± 0.016 | -0.0025 ± 0.0021 | 0.007 ± 0.017 | 0.0005 ± 0.0092 | 0.001 ± 0.013 | -0.046 ± 0.052 | -0.0065 ± 0.0035 | 0.01 ± 0.0071 | 0.01 ± 0.0014
HDF3CGF:CXCL9/MIG | -1.14 ± 0.041 | -0.0115 ± 0.015 | -0.007 ± 0.011 | -0.007 ± 0.0042 | -0.002 ± 0.0099 | 0.061 ± 0.025 | 0.048 ± 0.037 | -0.0195 ± 0.0092 | -0.0085 ± 0.025 | -0.0915 ± 0.047 | -0.01 ± 0.02 | -0.0025 ± 0.029 | -0.023 ± 0.025 | -0.001 ± 0.0042 | -0.012 ± 0.011 | -0.0175 ± 0.0078 | -0.0045 ± 0.0092 | 0.0035 ± 0.0092 | 0.006 ± 0.02
HDF3CGF:CXCL10/IP-10 | -0.492 ± 0.023 | 0.01 ± 0.021 | 0.003 ± 0.037 | 0.01 ± 0.028 | -0.008 ± 0.025 | 0.0085 ± 0.013 | 0.006 ± 0.055 | -0.015 ± 0.0042 | -0.023 ± 0.016 | -0.0495 ± 0.04 | 0.0085 ± 0.0078 | -0.013 ± 0.016 | -0.0205 ± 0.06 | -0.002 ± 0.0014 | -0.017 ± 0.044 | -0.401 ± 0.061 | 0.0065 ± 0.0092 | 0.0155 ± 0.013 | 0.0105 ± 0.016
HDF3CGF:CXCL11/I-TAC | -0.574 ± 0.078 | -0.007 ± 0.0057 | -0.0095 ± 0.0021 | -0.0105 ± 0.028 | -0.005 ± 0.027 | 0.036 ± 0.057 | -0.001 ± 0.092 | 0.014 ± 0.0014 | 0.037 ± 0.02 | 0.0555 ± 0.033 | -0.0475 ± 0.059 | -0.037 ± 0.064 | -0.089 ± 0.024 | -0.009 ± 0.016 | -0.014 ± 0.0071 | -0.22 ± 0.35 | 0.0075 ± 0.0078 | 0.0205 ± 0.0092 | -0.001 ± 0.014
HDF3CGF:Collagen I | -0.013 ± 0.048 | -0.025 ± 0.0028 | -0.008 ± 0.0071 | 0.0325 ± 0.018 | 0.025 ± 0.051 | 0.0485 ± 0.066 | 0.027 ± 0.052 | 0.0285 ± 0.019 | 0.01 ± 0.021 | -0.0645 ± 0.088 | -0.0015 ± 0.054 | -0.007 ± 0.0057 | 0.0385 ± 0.018 | -0.01 ± 0.0085 | -0.0005 ± 0.005 | 0.0145 ± 0.039 | -0.0175 ± 0.067 | -0.0175 ± 0.071 | 0.031 ± 0.13
HDF3CGF:Collagen III | 0.105 ± 0.11 | 0.032 ± 0.024 | 0.0315 ± 0.019 | 0.086 ± 0.014 | -0.0605 ± 0.03 | -0.0435 ± 0.011 | -0.048 ± 0.073 | 0.0555 ± 0.032 | -0.1 ± 0.048 | -0.142 ± 0.0021 | -0.0795 ± 0.13 | -0.0585 ± 0.14 | -0.0265 ± 0.09 | -0.0865 ± 0.14 | 0.0115 ± 0.074 | -0.367 ± 0.052 | -0.0165 ± 0.029 | -0.0105 ± 0.019 | 0.011 ± 0.05
